Results: publication PMC9927571, “Antibacterial Activity of an FtsZ Inhibitor Celastrol and Its Synergistic Effect with Vancomycin against Enterococci In Vitro and In Vivo” (Microbiology Spectrum, 2023)
pKd: −log10 of the molar value.

Biological target: T1, FtsZ (Filamenting temperature-sensitive mutant Z) (Enterococcus faecalis, UniProt O08439)
T1 construct: recombinant E. faecalis FtsZ protein (FTZ04-B)
Assay: SPR (Biacore T200, FtsZ immobilized on CM5 chip); also GTPase inhibition of E. faecalis FtsZ, IC50 […]
Assay type: binding

T1 sequence (O08439 whole entry, change not shown): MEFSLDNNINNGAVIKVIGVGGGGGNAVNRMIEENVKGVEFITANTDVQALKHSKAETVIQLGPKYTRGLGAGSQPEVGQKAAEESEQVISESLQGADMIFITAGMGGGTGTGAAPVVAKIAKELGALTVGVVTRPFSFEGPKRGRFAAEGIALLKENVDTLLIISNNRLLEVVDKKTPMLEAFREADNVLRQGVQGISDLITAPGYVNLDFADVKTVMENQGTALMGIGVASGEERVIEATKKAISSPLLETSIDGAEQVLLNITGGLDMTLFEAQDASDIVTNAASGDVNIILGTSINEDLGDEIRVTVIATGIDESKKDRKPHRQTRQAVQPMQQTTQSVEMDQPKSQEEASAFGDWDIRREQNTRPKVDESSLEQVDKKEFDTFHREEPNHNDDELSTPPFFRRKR

CC1=C(O)C(=O)C=C2C1=CC=C1[C@@]2(C)CC[C@@]2(C)[C@@H]3C[C@](C)(C(=O)O)CC[C@]3(C)CC[C@]12C [CEL, celastrol]
pKd: 5.61
